Test results reported in publication PMC11385693, “Synthesis of ferrocenyl benzimidazole derivatives as novel anti-Toxoplasma gondii agents” (New Journal of Chemistry, 2024).

Tests used:
Cyclic voltammetry = assay type: physicochemical
Text: Ferrocene is known to undergo reversible oxidation and reduction, cycling between its 3^+ ferrocenium and the 2^+ ferrocene (Fc) states.[49,50] This redox behaviour leads to the generation of reactive oxygen species (ROS) through Fenton like reactions, which can in turn lead to parasite death.[51–53] Cyclic voltammetry was used to determine if the synthesised ferrocenyl derivatives had the potential to have an impact on the redox status of the parasite cells. Two different scan rates (25 and 90 mV s^−1) were used to ensure the reliability of the results, compared to ferrocene alone.

[1] = test system: RhΔKu80:mNeonGreen strain of T. gondii; assay: microbe, parasite or virus in culture; assay type: cell-based, Toxoplasma gondii; conditions: T. gondii ΔKu80:mNeon in HFFs, 4 days, highest concentration 100 μM; NA = not active at the maximum tested concentration; three biological replicates in triplicate; read-out: EC50
Description: Growth inhibition assays were carried out using the RhΔKu80:mNeonGreen strain of T. gondii, which expresses the mNeonGreen fluorescent protein.[56] Parasite growth inhibition was determined by measuring the fluorescence emission of parasite growth in increasing concentrations of compounds of interest.
T. gondii ΔKu80:mNeon tachyzoites were grown in human foreskin fibroblasts (HFFs) with Dulbecco's modified Eagle's medium (DMEM) supplemented with 3% heat inactivated foetal bovine serum (D3) as the culturing medium. Cells and parasites were maintained at 37 °C and 5% carbon dioxide (CO2).
EC50s were calculated as previously described.[56] Briefly, T. gondii ΔKu80:mNeon parasites were counted by haemocytometer and diluted to 25 000 parasites per mL in 40 mL of D3 media, to give an infection of 5000 parasites per well. The media from a black clear bottomed 96 well plate containing HFFs was then aspirated. 200 μL of uninfected D3 media was added to the top and bottom rows of wells (A and H) to serve as blanks. 200 μL of T. gondii containing D3 media was then added to the remaining wells. The parasites were allowed 2 hours to invade host cells, after which test compounds were added.
The media from the infected 96 well plates was then aspirated and 100 μL of D3 media added to each well, excluding column 12. The first 4 wells of column 12 were filled with 300 μL of drug supplemented D3 media, while the next 4 wells were filled with 300 μL of D3 media supplemented with a different drug. The drug supplemented D3 media was then serially diluted 1 : 3 across the plate, stopping at column 2 and disposing of the media, leaving all wells with 100 μL of media. Finally, the plates were closed and incubated at 37 °C with 5% CO2 for 4 days. After 4 days the fluorescence of each well on the plates was read at 594 nm emission using a PHERAstar FS microplate reader. Graphpad Prism 9 software was used to plot dose–response and determine inhibition of parasite growth.

T. gondii parasites = assay: Determination of ROS formation by FACS (CellROX deep red); assay type: cell-based, Toxoplasma gondii; conditions: 66 μM, 18 hours, compared with untreated parasites
Description: Once it had been established that two of the synthesised ferrocenyl benzimidazole derivatives were biologically active, their potential mode of action was explored. Given the presence of the ferrocenyl moiety, and the cyclic voltammetry results, it was of interest to investigate whether the compounds induce ROS, which may provide an explanation for their anti-parasitic activity. Thus, cells heavily infected with parasites were incubated with target compounds for 18 hours, before isolating the parasites and staining them with CellRox deep red reagent. CellRox is an oxidation sensitive dye which is non-fluorescent in its reduced state but fluoresces bright red at 665 nm upon being oxidised by ROS. FACS was then used to quantify CellROX parasite florescence.[56] Parasites were incubated with ferrocene carboxylic acid (FcCOOH), and untreated parasites were used as controls.
6 cm dishes of host cells heavily infected with T. gondii were untreated or treated with 66 μM (second highest concentration used in growth inhibition assays) of test compounds for 18 hours. The dishes were then scratched and syringed, before filtering the solution into 10 mL falcon tubes to remove cell debris. The tubes were spun down for 10 minutes at 1500 rpm. The media was then removed from the tubes, and the pellet resuspended in 200 μL of PBS buffer. For each drug, 100 μL of the resuspended pellet was then placed into 2 FACS tubes, one which would then be stained with CellROX dye, and the other 100 μL of PBS added to act as an unstained control. A 1 : 125 dilution of CellROX stock solution was performed, and 100 μL of this solution added to the FACS tubes needing staining. Stained tubes were incubated at 37 °C for at least 15 min before analysis on a BD Celesta flow cytometer. Data was obtained using FACSDiva software with parasites being gated on forward scatter, side scatter and green fluorescence. FlowJo v10 software was used to plot the geometric mean of CellRox fluorescence from at least 5000 parasites on the Cy7 channel.

T. gondii = assay: Fluorescence microscopy of infected cells; assay type: cell-based, Toxoplasma gondii; conditions: 50 μM
Description: To visualise the impact of the target compounds on the parasites, fluorescence microscopy was performed. Compound 17 was used as a representative for the two active compounds and was incubated with infected cells at a concentration of 50 μM for 24 and 48 hours. Fluorescence microscopy images were obtained at each of the timepoints (Fig. 5).
A 24 well plate of HFF host cells grown on cover slips was infected with 100 μL of parasites per well and incubated at 37 °C for 1 h. The media in the wells was aspirated and replaced with media containing 50 μM of 17 The plate was once again incubated for 24 or 48 h at 37 °C. Once incubation was complete, the cells were washed once with PBS, before fixation with 500 μL of 4% paraformaldehyde (PFA) at room temperature for 20 minutes. Cells were washed and 500 μL of blocking buffer (2% bovine serum albumin (BSA) in mL PBST (PBS, 0.2% Triton x-100 solution) and incubated for 20 min at room temperature. The cover slips were then carefully removed from each well, mounted using Fluoromount with DAPI (Southern Biotech), and placed facing down on a microscope slide. Images were obtained using a Leica DiM8 (Leica Microsystems) microscope and processed and deconvolved using SoftWoRx and FIJI software.

In the case of `O=C(NCCn1cnc2cccnc21)[c-]1cccc1.[Fe+2].c1cc[cH-]c1` [Compound 17], the “E 1/2” value (Cyclic voltammetry; Run1, scan rate 25 mV s^−1) is reported as 620 mV, the ΔEp (Cyclic voltammetry; Run1, scan rate 25 mV s^−1) is reported as 79 mV and the “E 1/2” value (Cyclic voltammetry; Run2, scan rate 90 mV s^−1) is reported as 618 mV. The ΔEp (Cyclic voltammetry; Run2, scan rate 90 mV s^−1) was 68 mV, the EC50 [1] was 17.5 µM and the “ROS formation in treated parasites (CellRox red fluorescence)” value (T. gondii parasites) was “triggered the formation of ROS”. The “Parasite plasma membrane integrity (fluorescence microscopy)” value (T. gondii; 24 hours, leakage of fluorescent protein) was “damaged plasma membranes” and the “Daughter cell division of parasites that continued to grow (fluorescence microscopy)” value (T. gondii; 48 hours) was “abnormal daughter cell division”.
